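The compound was tested at five concentrations on cells cultured in 96-well plates, with a 48-hour exposure period. At the GI50, growth is halved.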 Active and inactive are the calls of the source. Cut-off read from the data, not from the text of the source: active = GI50 up to about 1.1 µM and inactive = higher.
Experiments:
Assay in all cases: NCI-60 cell line screen, 48 h
MDA-MB-231 = tested on: MDA-MB-231
SR = tested on: SR
MDA-MB-435 = tested on: MDA-MB-435
EKVX = tested on: EKVX
SK-MEL-5 = tested on: SK-MEL-5
COLO 205 = tested on: COLO 205
RXF 393 = tested on: RXF 393
HCC 2998 = tested on: HCC 2998
MOLT-4 = tested on: MOLT-4
UACC-62 = tested on: UACC-62
UACC-257 = tested on: UACC-257
U-251 = tested on: U-251
HL-60 = tested on: HL-60
UO-31 = tested on: UO-31
K562 = tested on: K562
T47D = tested on: T47D
SF-539 = tested on: SF-539
RPMI-8226 = tested on: RPMI-8226
Malme-3M = tested on: Malme-3M
Hs-578T = tested on: Hs-578T

Measured: GI50

COc1ccc2c(c1OC)OCC(CN(C)C)C2=O (stereo not given)
inactive: MDA-MB-231 18.8 µM | SR 1.87 µM | MDA-MB-435 19.5 µM | EKVX 25.2 µM | SK-MEL-5 17.7 µM | COLO 205 8.07 µM | RXF 393 16.6 µM | HCC 2998 18.7 µM | MOLT-4 2.23 µM | UACC-62 17.1 µM | UACC-257 16.7 µM | U-251 18.9 µM | HL-60 2.54 µM | UO-31 18.2 µM | K562 3.63 µM | T47D 19.9 µM | SF-539 20.4 µM | RPMI-8226 2.42 µM | Malme-3M 18.5 µM | Hs-578T 39.1 µM

COC(=O)[C@]12CC[C@H]3CN(S(=O)(=O)c4ccc(C)cc4)[C@H]([C@H]31)[C@H](c1ccco1)N2S(=O)(=O)c1ccc(C)cc1
inactive: MDA-MB-231 55.8 µM | SR 38.7 µM | MDA-MB-435 22.9 µM | EKVX 51.1 µM | SK-MEL-5 37.2 µM | COLO 205 20.5 µM | RXF 393 16.8 µM | HCC 2998 78.2 µM | MOLT-4 31.1 µM | UACC-62 19.4 µM | UACC-257 28.6 µM | U-251 64.3 µM | HL-60 30.2 µM | UO-31 29.3 µM | K562 30.2 µM | T47D 14.1 µM | SF-539 > 100 µM | RPMI-8226 20 µM | Malme-3M 23.8 µM | Hs-578T > 100 µM

C/C1=C\CC/C(C)=C/C=C(/C(C)C)CC/C(C(=O)O)=C/CC1 [CROTOCEMBRANEIC ACID]
inactive: MDA-MB-231 56.5 µM | SR 22 µM | MDA-MB-435 44.4 µM | EKVX 39 µM | SK-MEL-5 36 µM | COLO 205 19.9 µM | RXF 393 29.4 µM | HCC 2998 37.6 µM | MOLT-4 28.3 µM | UACC-62 25.8 µM | UACC-257 82.8 µM | U-251 35.1 µM | HL-60 33 µM | UO-31 72.8 µM | K562 33.9 µM | T47D 23.2 µM | SF-539 37.9 µM | RPMI-8226 22.8 µM | Malme-3M 70.1 µM | Hs-578T 72.1 µM

O=C(CCCN1CCC2(CC1)CC(c1ccccc1)OC2=O)c1ccc(F)cc1 (stereo not given)
inactive: MDA-MB-231 84.5 µM | SR 19.6 µM | MDA-MB-435 41.3 µM | EKVX > 100 µM | SK-MEL-5 15 µM | COLO 205 17.3 µM | RXF 393 66.2 µM | HCC 2998 23.4 µM | MOLT-4 28.3 µM | UACC-62 25.2 µM | UACC-257 23.6 µM | U-251 74.5 µM | HL-60 25.6 µM | UO-31 19.4 µM | K562 29.5 µM | T47D 16.2 µM | SF-539 28.4 µM | RPMI-8226 30.1 µM | Malme-3M 17.8 µM | Hs-578T 40.8 µM
